Measured values published in patent US5593982A, “Cyclopentanperhydrophenanthren-17β-(3-furyl)-3-derivatives and pharmaceutical compositions comprising same for the treatment of cardiovascular disorders” (Sigma-Tau Industrie Farmaceutiche Riunite S.p.A., priority 1992, dated 1997).
Like-named read-outs stand apart in the source and are kept apart here.

Assays:
[1] = target: T1, purified Na^+,K^+ -ATPase (Canis lupus familiaris, UniProt P50997); assay: inhibition of the activity of the purified Na+,K+-ATPase measured as % of hydrolysis of 32P-ATP; format: biochemical
T1 construct: from tissue; mammalian kidney outer medulla by the cited Jorgensen 1974 method (own knowledge)
Text: (§1) To test the affinity for the receptor site of the Na^+,K^+ -ATPase and the agonist or antagonist activity on the enzyme, the following tests were used: a) displacement of the specific ^3 H-ouabain binding from the Na^+,K^+ -ATPase receptor purified according to Jorghensen (Jorghensen P., BBA, 1974, 356, 36) and Erdmann (Erdmann E. et al., Arzneim. Forsh., 1984, 34, 1314); b) inhibition of the activity of the purified Na^+,K^+ -ATPase measured as % of hydrolysis of ^32 P-ATP in presence and in absence of the tested compound (Mall F. et al., Biochem. Pharmacol., 1984, 33, 47).

hypertensive MHS rats = assay: systolic blood pressure and heart rate in hypertensive MHS rats (indirect tail-cuff method); format: in vivo, rat (MHS); details: 20 mg/Kg/os daily for ten days in METHOCEL 0.5% w/v, 7 rats; for SBP (systolic blood pressure): controls 171 ± 4.5; for HR (heart rate): controls 384 ± 11.0
Method: The ability of these compounds to lower blood pressure in adult hypertensive MHS rats was tested by the following method: systolic blood pressure (SBP) and heart rate (HR) were measured by an indirect tail-cuff method in three-month old hypertensive MHS rats before beginning treatment (basal values). The rats were then subdivided in two groups of 7 animals each, one receiving the compound and the other, the control group, receiving only the vehicle. The compound, suspended in METHOCEL® 0.5% (w/v), for ten days, was administered daily by mouth. SBP and HR were measured daily 6 and 24 hours after the treatment. When ten-day treatment washout had been under way for at least two days, whether the treatment maintains SBP low or re-establish the basal values was verified. The affinity and the inhibitory activity of some ethers and of the reference compound (II-a) in the two tests are shown in the following table: […]

[2] = target: T2, Na^+,K^+ -ATPase receptor (Canis lupus familiaris, UniProt P50997); assay: displacement of the specific 3H-ouabain binding from the purified Na+,K+-ATPase receptor
T2 construct: from tissue; mammalian kidney outer medulla by the cited Jorgensen 1974 method (own knowledge)
Text: as §1

[3] = hydrolysis of 32P-ATP, purified Na+,K+-ATPase, read-out: Inhibitory Activity log IC50 (converted)
[4] = displacement of specific 3H-ouabain binding, purified Na+,K+-ATPase, read-out: Binding 3H-Ouab. Displacement log IC50 (converted)

| Compound | IC50 [1, 3] [nM] | SBP (systolic blood pressure) (hypertensive MHS rats) [mm Hg] | HR (heart rate) (hypertensive MHS rats) [beats/min.] | IC50 [2] [nM] | IC50 [1] [nM] | IC50 [2, 4] [nM] |
| --- | --- | --- | --- | --- | --- | --- |
| C[C@]12CC[C@H](OCCCN)C[C@H]1CC[C@@H]1[C@@H]2CC[C@]2(C)[C@@H](c3ccoc3)CC[C@]12O [Comp. I-ab, 3β-(3-Aminopropoxy)-17β-(3-furyl)-5β-androstan-14β-ol] | 1260 | 157 ± 4.9 | 371 ± 10.0 | 126 | – | – |
| C[C@]12CC[C@H](OCCCN3CCCC3)C[C@H]1CC[C@@H]1[C@@H]2CC[C@]2(C)[C@@H](c3ccoc3)CC[C@]12O [Comp. I-ae] | – | 154 ± 6.3 | 395 ± 8.7 | 126 | 794 | – |
| C[C@]12CC[C@H](OCCNCCN3CCCC3)C[C@H]1CC[C@@H]1[C@@H]2CC[C@]2(C)[C@@H](c3ccoc3)CC[C@]12O [Comp. I-ag, 3β-(2-(2-(1-Pyrrolidinyl)ethylamino)ethoxy)-17β-(3-furyl)-5β-androstan-14β-ol] | – | 162 ± 5.0 | 377 ± 9.0 | 158 | 1580 | – |
| C[C@]12CC[C@H](OCCSCCN3CCCC3)C[C@H]1CC[C@@H]1[C@@H]2CC[C@]2(C)[C@@H](c3ccoc3)CC[C@]12O [Comp. I-ai, 3β-(2-(2-(1-Pyrrolidinyl)ethylthio)ethoxy)-17β-(3-furyl)-5β-androstan-14β-ol] | – | 160 ± 4.7 | 390 ± 8.9 | 200 | 631 | – |
| C[C@]12CC[C@H](OCCNC(=N)N)C[C@H]1CC[C@@H]1[C@@H]2CC[C@]2(C)[C@@H](c3ccoc3)CC[C@]12O [Comp. I-al, 3β-(2-Guanidinoethoxy)-17β-(3-furyl)-5β-androstan-14β-ol nitrate] | – | 159 ± 5.0 | 393 ± 9.0 | 126 | 1580 | – |
| C[C@]12CC[C@H](SCCN)C[C@H]1CC[C@@H]1[C@@H]2CC[C@]2(C)[C@@H](c3ccoc3)CC[C@]12O [Comp. I-bv, 3β-(2-Aminoethylthio)-17β-(3-furyl)-5β-androstan-14β-oloxalate] | – | 161 ± 4.2 | 384 ± 6.7 | – | 2000 | 501 |
| C[C@]12CC[C@H](SCCN3CCCC3)C[C@H]1CC[C@@H]1[C@@H]2CC[C@]2(C)[C@@H](c3ccoc3)CC[C@]12O [Comp. I-bw, 3β-(2-(1-Pyrrolidinyl)ethylthio)-17β-(3-furyl)-5β-androstan-14β-ol] | 3980 | 157 ± 4.3 | 392 ± 10.0 | – | – | 794 |
| C[C@]12CC[C@H](SCCOCCN3CCCC3)C[C@H]1CC[C@@H]1[C@@H]2CC[C@]2(C)[C@@H](c3ccoc3)CC[C@]12O [Comp. I-by, 3β-(2-(2-(1-Pyrrolidinyl)ethoxy)ethylthio)-17β-(3-furyl)-5β-androstan-14β-ol] | – | 154 ± 6.3 | 395 ± 8.7 | 158 | 1000 | – |
| C[C@]12CC[C@H](OCCOCC(O)CN)C[C@H]1CC[C@@H]1[C@@H]2CC[C@]2(C)[C@@H](c3ccoc3)CC[C@]12O (stereo partly drawn) [Comp. I-cy, 3β-(2-(3-Amino-2-hydroxypropoxy)ethoxy)-17β-(3-furyl)-5β-androstan-14β-ol] | – | – | – | 398 | 1580 | – |
| C[C@]12CC[C@H](OCCOCC(N)CN)C[C@H]1CC[C@@H]1[C@@H]2CC[C@]2(C)[C@@H](c3ccoc3)CC[C@]12O (stereo partly drawn) [Comp. I-cz, 3β-(2-(2,3-Diaminopropoxy)ethoxy)-17β-(3-furyl)-5β-androstan-14β-ol] | – | – | – | 398 | 2000 | – |
| C[C@]12CC[C@H](OCCOCCCN3CCCC3)C[C@H]1CC[C@@H]1[C@@H]2CC[C@]2(C)[C@@H](c3ccoc3)CC[C@]12O [Comp. I-da, 3β-(2-(3-(1-Pyrrolidinyl)propoxy)ethoxy)-17β-(3-furyl)-5β-androstan-14β-ol] | – | – | – | 316 | 1580 | – |
| C[C@]12CC[C@H](OCCNCCCN3CCCC3)C[C@H]1CC[C@@H]1[C@@H]2CC[C@]2(C)[C@@H](c3ccoc3)CC[C@]12O [Comp. I-db, 3β-(2-(3-(1-Pyrrolidinyl)propylamino)ethoxy)-17β-(3-furyl)-5β-androstan-14β-ol] | – | – | – | 200 | 1580 | – |
| C[C@]12CC[C@H](O)C[C@H]1CC[C@@H]1[C@@H]2CC[C@]2(C)[C@@H](c3ccoc3)CC[C@]12O [Comp. II-a, 17β-(3-furyl)-5β-androstane-3β,14β-diol, reference compound] | – | 175 ± 4.1 | 382 ± 9.0 | – | – | – |
